Experiment [1] has as its target T1, Cholecystokinin receptor type A (Rattus norvegicus, UniProt P30551).
T1 sequence (P30551 whole entry): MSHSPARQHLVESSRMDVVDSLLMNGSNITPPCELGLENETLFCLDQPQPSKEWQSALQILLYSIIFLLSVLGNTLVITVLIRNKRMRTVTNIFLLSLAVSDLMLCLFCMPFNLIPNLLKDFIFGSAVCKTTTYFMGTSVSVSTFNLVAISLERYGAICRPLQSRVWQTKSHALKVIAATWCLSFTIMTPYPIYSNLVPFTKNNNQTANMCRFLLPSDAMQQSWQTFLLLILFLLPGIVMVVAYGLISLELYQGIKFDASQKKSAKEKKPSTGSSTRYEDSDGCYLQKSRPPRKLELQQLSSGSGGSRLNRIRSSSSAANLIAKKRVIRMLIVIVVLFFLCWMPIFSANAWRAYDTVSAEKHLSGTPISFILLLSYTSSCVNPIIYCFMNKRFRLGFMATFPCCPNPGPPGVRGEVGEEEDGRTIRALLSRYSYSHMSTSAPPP
Description: Binding affinity towards CCK-A receptor in rat pancreas using [125I]Bolton-Hunter CCK-8 as radioligand; Value ranges from 11-16 uM. It counts as tissue-based.

For experiment [2], the target named is T2, Substance-P receptor (Cavia porcellus, UniProt P30547). Description: Binding affinity towards NK-1 receptor in guinea pig cerebral cortex using [125I]-Bolton-Hunter substance P as radioligand; Value ranges from 7.3-8.8 uM. It counts as tissue-based.
Experiment [3] concerns the target T3, Neuromedin-K receptor (Cavia porcellus, UniProt P30098).
T3 sequence (P30098 whole entry): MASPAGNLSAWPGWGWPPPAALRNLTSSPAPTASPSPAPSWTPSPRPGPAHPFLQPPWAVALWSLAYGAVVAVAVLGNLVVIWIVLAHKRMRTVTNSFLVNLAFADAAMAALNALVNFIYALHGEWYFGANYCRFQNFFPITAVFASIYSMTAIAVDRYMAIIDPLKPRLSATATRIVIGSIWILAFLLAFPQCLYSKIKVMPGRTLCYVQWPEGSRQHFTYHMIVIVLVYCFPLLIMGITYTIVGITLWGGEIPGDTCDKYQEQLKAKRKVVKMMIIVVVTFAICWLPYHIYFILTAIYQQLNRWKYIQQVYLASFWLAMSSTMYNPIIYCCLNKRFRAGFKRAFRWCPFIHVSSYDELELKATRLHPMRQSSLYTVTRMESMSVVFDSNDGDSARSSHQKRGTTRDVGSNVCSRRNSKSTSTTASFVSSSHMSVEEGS
Put plainly: Binding affinity towards Tachykinin receptor 3 in guinea pig cerebral cortex using [3H]senktide as radioligand; Inactive (>>10 uM). It counts as tissue-based.

Experiment [4] deals with T4, Substance-K receptor (Mesocricetus auratus, UniProt P51144).
T4 sequence (P51144 whole entry): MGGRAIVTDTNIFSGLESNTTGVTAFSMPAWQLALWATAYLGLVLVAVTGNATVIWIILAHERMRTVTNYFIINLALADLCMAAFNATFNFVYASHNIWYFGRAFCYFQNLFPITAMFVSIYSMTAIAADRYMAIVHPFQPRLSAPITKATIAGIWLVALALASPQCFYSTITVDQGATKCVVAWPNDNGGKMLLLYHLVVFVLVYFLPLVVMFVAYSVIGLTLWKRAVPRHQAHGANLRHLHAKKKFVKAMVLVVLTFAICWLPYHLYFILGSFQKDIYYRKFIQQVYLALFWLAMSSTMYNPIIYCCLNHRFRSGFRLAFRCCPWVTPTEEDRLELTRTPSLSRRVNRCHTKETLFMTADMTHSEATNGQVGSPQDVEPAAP
Description: Binding affinity towards Tachykinin receptor 2 in hamster urinary bladder using [125I]-Neurokinin A as radioligand; Inactive (>>10 uM). It counts as tissue-based.

In experiment [5] the target is T5, Gastrin/cholecystokinin type B receptor (Mus musculus, UniProt P56481).
T5 sequence (P56481 whole entry): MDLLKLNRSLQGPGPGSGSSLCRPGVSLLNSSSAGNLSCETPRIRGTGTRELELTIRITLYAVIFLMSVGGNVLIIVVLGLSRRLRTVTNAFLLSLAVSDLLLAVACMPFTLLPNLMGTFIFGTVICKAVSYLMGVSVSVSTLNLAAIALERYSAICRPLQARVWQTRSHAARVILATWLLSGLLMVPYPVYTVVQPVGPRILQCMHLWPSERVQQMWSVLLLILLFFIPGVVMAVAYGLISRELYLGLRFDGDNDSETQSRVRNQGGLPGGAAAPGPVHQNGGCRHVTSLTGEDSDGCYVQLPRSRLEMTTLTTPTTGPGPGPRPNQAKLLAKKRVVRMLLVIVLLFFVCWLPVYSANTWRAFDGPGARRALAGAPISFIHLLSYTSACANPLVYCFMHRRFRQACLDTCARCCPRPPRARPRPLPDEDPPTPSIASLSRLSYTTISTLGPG
Description: Binding affinity towards CCK-B receptor in mouse cerebral cortex using [125I]Bolton-Hunter CCK-8 as radioligand; Inactive (>>10 uM). It is filed as tissue-based.

For experiment [6], the target named is T2, Substance-P receptor. Description: Binding affinity towards NK-1 receptor in guinea pig cerebral cortex using [125I]Bolton-Hunter substance P as radioligand; Inactive (>>10 uM). It is filed as tissue-based.
Experiment [7] deals with T4, Substance-K receptor. Put plainly: Binding affinity towards Tachykinin receptor 2 in hamster urinary bladder using [125I]neurokinin A as radioligand; Value ranges from 2.6-11 uM.
Experiment [8] addresses T1, Cholecystokinin receptor type A. Description: Binding affinity towards CCK-A receptor in rat pancreas using [125I]Bolton-Hunter CCK-8 as radioligand; Value ranges from 4.7-7.1 uM. It counts as tissue-based.
The target in experiment [9] is T5, Gastrin/cholecystokinin type B receptor. Put plainly: Binding affinity towards CCK-B receptor in mouse cerebral cortex using [125I]Bolton-Hunter CCK-8 as radioligand; Value ranges from 7.8-9.3 uM. It counts as tissue-based.
The target of experiment [10] is T1, Cholecystokinin receptor type A. Description: Binding affinity towards CCK-A receptor in rat pancreas using [125I]Bolton-Hunter CCK-8 as radioligand; Value ranges from 12-20 uM. It is filed as tissue-based.
The target of experiment [11] is T3, Neuromedin-K receptor. Description: Binding affinity towards Tachykinin receptor 3 in guinea pig cerebral cortex using [3H]senktide as radioligand; Value ranges from 5.8-14u M. It is filed as tissue-based.
The target of experiment [12] is T4, Substance-K receptor. Description: Binding affinity towards Tachykinin receptor 2 in hamster urinary bladder using [125I]neurokinin A as radioligand; Value ranges from 4.6-9.0 uM.
The target of experiment [13] is T1, Cholecystokinin receptor type A. Description: Binding affinity towards CCK-A receptor in rat pancreas using [125I]Bolton-Hunter CCK-8 as radioligand; Value ranges from 3.3-5.4 uM. It is filed as tissue-based.
In experiment [14] the target is T5, Gastrin/cholecystokinin type B receptor. Description: Binding affinity towards CCK-B receptor in mouse cerebral cortex using [125I]Bolton-Hunter CCK-8 as radioligand; Value ranges from 9.8-25 uM. It is filed as tissue-based.
Experiment [15] has as its target T1, Cholecystokinin receptor type A. Put plainly: Binding affinity towards CCK-A receptor in rat pancreas using [125I]Bolton-Hunter CCK-8 as radioligand; Value ranges from 3.5-4.6 uM. It counts as tissue-based.
Experiment [16] has the same target. Put plainly: Binding affinity towards CCK-A receptor in rat pancreas using [125I]Bolton-Hunter CCK-8 as radioligand; Value ranges from 4.1-6.4 uM. It counts as tissue-based.
In experiment [17] the target is T3, Neuromedin-K receptor. Put plainly: Binding affinity towards Tachykinin receptor 3 in guinea pig cerebral cortex using [3H]senktide as radioligand; Value ranges from 8.2-9.4 uM. It counts as tissue-based.

T2 sequence (P30547 whole entry): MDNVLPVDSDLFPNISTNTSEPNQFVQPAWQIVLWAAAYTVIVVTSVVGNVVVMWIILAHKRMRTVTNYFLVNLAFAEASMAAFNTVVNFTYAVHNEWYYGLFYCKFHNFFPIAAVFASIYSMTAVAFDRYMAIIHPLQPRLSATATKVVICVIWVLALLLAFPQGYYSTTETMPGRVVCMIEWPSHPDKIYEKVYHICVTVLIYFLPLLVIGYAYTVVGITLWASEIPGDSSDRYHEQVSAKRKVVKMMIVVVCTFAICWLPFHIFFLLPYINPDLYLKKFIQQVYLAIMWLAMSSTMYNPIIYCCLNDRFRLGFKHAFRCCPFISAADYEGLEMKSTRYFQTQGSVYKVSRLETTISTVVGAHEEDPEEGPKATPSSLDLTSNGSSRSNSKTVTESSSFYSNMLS

For the compound `O=C1CCN(C(=O)OCc2ccccc2)CC1Cc1ccccc1` (stereo unspecified), the half-maximal inhibitory concentration (IC50) was 13 µM in [1]; 8.1 µM at Substance-P receptor [2]; “Not Active” at Neuromedin-K receptor [3]; “Not Active” on Substance-K receptor [4]; “Not Active” in experiment [5].
On to `O=C1CCN(C(=O)CCc2c[nH]c3ccccc23)CC1Cc1ccccc1` (stereo unspecified), for which the IC50 entry was “Not Active” on Substance-P receptor [6], “Not Active” on Neuromedin-K receptor [3] and 6.9 µM on Substance-K receptor [7].
With `CCOP(=O)(OCC)OC1=CCN(Cc2ccccc2)CC1Cc1cn(C(=O)OC(C)(C)C)c2ccccc12` (stereo unspecified), the IC50 in [8] was 5.5 µM; in experiment [9] it was 8.5 µM; at Substance-P receptor [6] it was “Not Active”; at Neuromedin-K receptor [3] it was “Not Active”; at Substance-K receptor [4], “Not Active”.
For `O=C1CCN(Cc2ccccc2)CC1Cc1c[nH]c2ccccc12` (stereo unspecified), the IC50 in [10] was 16 µM; on Substance-P receptor [6], “Not Active”; at Neuromedin-K receptor [11] it was 10 µM; on Substance-K receptor [12], 6.8 µM; in experiment [5], “Not Active”.
Consider `O=C1[C@H](Cc2c[nH]c3ccccc23)CN(Cc2ccccc2)C[C@@H]1Cc1c[nH]c2ccccc12`, for which the IC50 was 4.1 µM in [13]; 15 µM in [14]; “Not Active” on Substance-P receptor [6]; “Not Active” on Neuromedin-K receptor [3]; “Not Active” on Substance-K receptor [4].
As for `O=C1C(Cc2c[nH]c3ccccc23)CN(Cc2ccccc2)C[C@@H]1Cc1c[nH]c2ccccc12` (stereo partly specified), the IC50 is 4 µM in [15]; “Not Active” at Substance-P receptor [6]; “Not Active” at Neuromedin-K receptor [3]; “Not Active” on Substance-K receptor [4]; “Not Active” in experiment [5].
`CC(C)(C)OC(=O)n1cc(CC2CN(Cc3ccccc3)CCC2O)c2ccccc21` (stereo unspecified): the IC50 in experiment [16] was 5.2 µM; at Substance-P receptor [6], “Not Active”; at Neuromedin-K receptor [3], “Not Active”; on Substance-K receptor [4] it was “Not Active”; in [5], “Not Active”.
As to `OC1CCN(Cc2ccccc2)C[C@@H]1Cc1c[nH]c2ccccc12` (stereo partly specified), the IC50 result on Substance-P receptor [6] was “Not Active”; on Neuromedin-K receptor [17] it was 8.8 µM; on Substance-K receptor [4], “Not Active”.

Usually IC50 stands for the point on the concentration scale where inhibition reaches its midpoint. A higher IC50 goes with weaker potency.

The values are drawn from ChEMBL document CHEMBL1127244, “Alternative strategies towards the identification of chemical lead compounds by rational design” (Bioorg Med Chem Lett, 1994).
